Data as given in article PMC12491701, “Discovery of an APP-selective BACE1 inhibitor for Alzheimer's disease” (Neurotherapeutics, 2025).
In brackets after ≈: the same amount, converted by molar mass.

What was measured:
BACE1 cleavage of NRG1 = biological target: T1, BACE1 cleavage of NRG1 (Homo sapiens, UniProt P56817); assay: SEAP-NRG assay; assay type: cell-based
T1 construct: with or without full-length wild-type BACE1; expressed in transfected cells; host or cells: HEK293
Protocol: A cDNA construct encoding a human placental secreted alkaline phosphatase (SEAP)-NRG1 (pAPtag5-NRG1-β1) fusion protein was transfected in human embryonic kidney (HEK293) cells in a 6-well format with or without full-length wild-type BACE1 using Lipofectamine 2000 (Invitrogen) as described previously [27]. After transfection, the medium was replaced with DMEM containing the test compound at 10, 5, 1, 0.1, and 0.01 ​μM as well as 10 ​% heat-inactivated fetal bovine serum (FBS), then incubated for 24 ​h. SEAP activity was measured in the conditioned medium.

Kinetic solubility assay = assay type: physicochemical; details: aqueous buffer, kinetic from dmso stock, PBS pH 7.4, 37 °C
Protocol: FAH65 and its enantiomers at 10 mM in 100% DMSO was diluted in PBS pH 7.4 to 100, 10, 1, and 0.1 µM; plus, a vehicle-only control. The solutions were incubated at 37 °C for 90 min and centrifuged at 16K x g for 5 min. An aliquot of each supernatant was analyzed by LC-MS/MS. A standard curve was generated by plotting the known amount of analyte per standard in DMSO vs. chromatographic peak […]
Kinetic solubility (µM) was calculated using the trendline equation with maximum chromatographic peak area observed in the aqueous sample. (Table S3)
Liver microsome stability assay
A 1 µL sample of 1 mM FAH65 and its enantiomers in 100% DMSO was added to 1 mL of 0.5 mg/mL human liver microsomes (Thermo Fisher Scientific, Cat# HMMPL) in PBS pH 7.4, 2 mM NADPH, and 2 mM MgCl2; and incubated at 37 °C for 120 min. Aliquots (50 µL) of the microsome solution were taken […]
quenching solution containing an internal standard. Solutions were clarified by centrifugation (16K x g, 5 min) and supernatants transferred to new tubes and lyophilized. Samples were reconstituted in 100 µL of 50/50/0.1 water/acetonitrile/formic acid prior to analysis via LC-MS/MS. […]
One µL FAH65 and its enantiomers (1 mM in 100% DMSO) was added to human peripheral blood plasma (Cat#70039, Stemcell Technologies Inc) diluted 2-fold in PBS (1000 µL, pH 7.4) and incubated […]

Pharmacokinetics in mice = assay type: in vivo, mouse; details: mice
Protocol: Wildtype or non-transgenic (NTg) C57Bl6 mice or Sprague-Dawley rats were dosed by oral (gavage) or subcutaneous (SQ) injection at 10 or 30 mg/kg, and animals were euthanized 1, 2, 6, and 8 h after administration by ketamine/xylazine over-anesthesia, in rats, CSF was also collected, followed by transcardial collection of blood for isolation of plasma and saline perfusion. Brain tissue was collected post-mortem for assessment of compound levels and biomarkers.
Analyses of compound levels in PK studies were performed in the UCLA Pasarow Mass Spectrometry Lab (PMSL; Julian Whitelegge, Ph.D., Director). Tissues were homogenized in a bead beater using 5 vol of ice-cold 80 % acetonitrile (1/5; mg of brain/μL of 80 % ACN). Plasma analytes were extracted using 4 vol of ice-cold acetonitrile (1/4; μL of plasma/μL of 100 % ACN). Solutions were clarified by centrifugation (16,000×g, 5 min) and the supernatants were transferred to new tubes and lyophilized. Samples were reconstituted in 100 μL of 50/50/0.1 (Water/Acetonitrile/Formic Acid) prior to analysis via liquid chromatography-tandem mass spectrometry (LC-MS/MS).
An internal standard (IS) was added to every sample to account for compound loss during sample processing. Standards were made in drug naïve plasma and tissue lysates with increasing amounts of analyte (S1, S2: 0 pmol/S3, S4: 1 pmol/S5, S6: 10 pmol/S7, S8: 100 pmol, S9, S10: 1000 pmol). The standard curve was made by plotting the known amount of analyte per standard vs. the ratio of measured chromatographic peak areas corresponding to the analyte over that of the IS (analyte/IS). The trendline equation was then used to calculate the absolute concentrations of each compound in plasma and tissue.
The targeted LC-MS/MS assay was developed using the multiple reaction monitoring (MRM) acquisition method on a 6460 triple quadrupole mass spectrometer (Agilent Technologies) coupled to a 1290 Infinity HPLC system (Agilent Technologies) with a Phenomenex analytical column (Kinetex 1.7 μm C18 100 Å 100 × 2.1 mm). The HPLC method utilized a mixture of solvent A (99.9/0.1 Water/Formic Acid) and solvent B (99.9/0.1 Acetonitrile/Formic Acid) and a gradient was use for the elution of the compounds (min/%B: 0/1, 3/1, 19/99, 20/1, 30/1). Two fragment ions were monitored at specific LC retention times to ensure specificity and accurate quantification in the complex biological samples. The normalized chromatographic peak areas were determined by taking the ratio of measured chromatographic peak areas corresponding to the compound over that of the internal standard (Analyte/IS).
The Tmax, Cmax, brain-to-plasma ratios and brain levels were then calculated using PK Solutions software (SummitPK).

[1] = biological target: T2, potassium channel hERG (human) (Homo sapiens, UniProt Q12809); assay: hERG [3H] dofitilide binding assay
T2 construct: Eurofins (CEREP PanLabs)
Excerpt: The raw data uncorrected for contribution of
Animals were euthanized at
biochemical analyses (Fig. S3).
at Lotus Separations (Princeton, NJ).

eAPP = eAPP (Homo sapiens, UniProt P05067); assay: APP binding by surface plasmon resonance (SPR); details: SPR, in words
Sequence of eAPP (P05067 18-701): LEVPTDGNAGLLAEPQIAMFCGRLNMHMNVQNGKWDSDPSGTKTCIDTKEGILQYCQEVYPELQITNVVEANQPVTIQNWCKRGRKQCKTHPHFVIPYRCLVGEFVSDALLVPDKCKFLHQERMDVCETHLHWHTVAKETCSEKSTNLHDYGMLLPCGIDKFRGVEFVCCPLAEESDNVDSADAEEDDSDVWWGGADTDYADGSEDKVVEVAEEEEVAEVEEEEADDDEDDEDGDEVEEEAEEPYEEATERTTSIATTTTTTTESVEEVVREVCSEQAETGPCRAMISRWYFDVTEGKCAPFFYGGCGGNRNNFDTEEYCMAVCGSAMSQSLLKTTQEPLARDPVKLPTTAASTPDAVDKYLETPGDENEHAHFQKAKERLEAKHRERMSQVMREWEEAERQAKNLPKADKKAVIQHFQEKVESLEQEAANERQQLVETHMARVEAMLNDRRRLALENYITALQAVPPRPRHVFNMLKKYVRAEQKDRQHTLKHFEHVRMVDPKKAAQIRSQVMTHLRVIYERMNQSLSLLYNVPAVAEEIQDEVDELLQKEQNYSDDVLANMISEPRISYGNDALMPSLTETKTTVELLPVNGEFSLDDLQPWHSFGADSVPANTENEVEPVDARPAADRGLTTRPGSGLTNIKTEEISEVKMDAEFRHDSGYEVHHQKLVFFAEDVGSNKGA
Protocol: The interaction of FAH3, 17 and 65 were evaluated using the SPR protocol described previously in Descamps et al., [26].
For these pilot experiments eAPP as described in Descamps et al (26) is crosslinked to a the CM5 Biacore chip. FAH3 at various concentration was used in the flow through the chip, and the plasmon resonance signal was determined using a Biacore T100. The raw data uncorrected for contribution of running buffer is fit to equilibrium binding data and corrected for the contribution of the running buffer to
For FAH17 and FAH65-APP binding was determined using SPR to determine competition with BSA that non-specifically binds to the eAPP-Biacore chip.

T1 sequence (P56817 46-501): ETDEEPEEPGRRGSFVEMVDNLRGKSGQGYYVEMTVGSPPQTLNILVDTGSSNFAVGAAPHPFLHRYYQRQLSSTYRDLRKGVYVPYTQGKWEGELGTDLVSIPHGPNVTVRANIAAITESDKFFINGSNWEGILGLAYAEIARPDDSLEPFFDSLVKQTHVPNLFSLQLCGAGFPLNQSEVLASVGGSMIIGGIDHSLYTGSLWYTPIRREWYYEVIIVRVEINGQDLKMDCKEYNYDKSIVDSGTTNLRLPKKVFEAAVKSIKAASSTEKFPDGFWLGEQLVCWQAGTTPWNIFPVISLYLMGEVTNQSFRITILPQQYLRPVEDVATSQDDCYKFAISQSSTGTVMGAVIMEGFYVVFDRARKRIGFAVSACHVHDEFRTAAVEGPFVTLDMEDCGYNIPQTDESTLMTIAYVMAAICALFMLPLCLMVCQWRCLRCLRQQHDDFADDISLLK
T2 sequence (Q12809 whole entry): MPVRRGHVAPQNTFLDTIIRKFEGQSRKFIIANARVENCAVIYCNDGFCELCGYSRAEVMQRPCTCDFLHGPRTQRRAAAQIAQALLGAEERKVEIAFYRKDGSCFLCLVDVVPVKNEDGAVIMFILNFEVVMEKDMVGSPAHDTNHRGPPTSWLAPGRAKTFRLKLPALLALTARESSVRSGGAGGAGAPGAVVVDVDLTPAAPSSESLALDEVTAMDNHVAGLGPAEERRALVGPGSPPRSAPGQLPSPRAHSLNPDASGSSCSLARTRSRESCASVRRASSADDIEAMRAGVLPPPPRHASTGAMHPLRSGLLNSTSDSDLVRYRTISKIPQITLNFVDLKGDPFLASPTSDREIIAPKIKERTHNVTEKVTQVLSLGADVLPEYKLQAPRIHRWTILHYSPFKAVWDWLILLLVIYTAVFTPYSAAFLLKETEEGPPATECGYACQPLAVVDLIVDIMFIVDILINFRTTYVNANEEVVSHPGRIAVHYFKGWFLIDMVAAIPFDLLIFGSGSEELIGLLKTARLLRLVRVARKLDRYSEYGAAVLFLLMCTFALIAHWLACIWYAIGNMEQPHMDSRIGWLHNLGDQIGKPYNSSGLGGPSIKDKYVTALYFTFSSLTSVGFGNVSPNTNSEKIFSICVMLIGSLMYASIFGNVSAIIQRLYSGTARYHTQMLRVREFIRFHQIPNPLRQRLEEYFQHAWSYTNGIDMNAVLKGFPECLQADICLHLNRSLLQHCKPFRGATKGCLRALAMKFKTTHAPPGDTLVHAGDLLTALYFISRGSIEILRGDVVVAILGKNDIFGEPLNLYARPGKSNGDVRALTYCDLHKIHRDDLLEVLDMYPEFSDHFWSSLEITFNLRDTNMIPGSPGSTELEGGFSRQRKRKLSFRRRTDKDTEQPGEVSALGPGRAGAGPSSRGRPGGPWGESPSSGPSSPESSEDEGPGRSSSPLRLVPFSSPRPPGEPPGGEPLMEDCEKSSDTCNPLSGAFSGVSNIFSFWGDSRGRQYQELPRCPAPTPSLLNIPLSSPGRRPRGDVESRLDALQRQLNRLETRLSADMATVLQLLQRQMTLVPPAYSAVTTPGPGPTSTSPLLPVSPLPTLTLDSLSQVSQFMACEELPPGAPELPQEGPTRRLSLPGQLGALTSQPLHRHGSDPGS

What does the source list for `Cc1cc(C2(c3cccc(-c4cncnc4)c3)N=C(N)N(C)C2=O)ccc1OC(F)F` (centres unmarked) [FAH65]?
EC50 (BACE1 cleavage of NRG1; SEAP-NRG1, HEK293): > 10 µM; IC50 (BACE1 cleavage of NRG1; Table S1): 2 µM; substrate selectivity IC50 NRG1/IC50 APP (BACE1 cleavage of NRG1; ratio): > 200; solubility kinetic at 90 min (Kinetic solubility assay): 88 µM (≈ 37.3 µg/mL); Cmax (Pharmacokinetics in mice; C57Bl6, mouse, plasma, oral, 30 mg/kg): ~50 ng/mL; brain Cmax (Pharmacokinetics in mice; oral, 30 mg/kg): 74 ng/g; time of brain Cmax (Pharmacokinetics in mice; oral, 30 mg/kg): 1 h; compound levels in plasma (Pharmacokinetics in mice; subcutaneous (SQ), 10 or 30 mg/kg): over 3000 ng/mL; EC50 [1]: > 10 µM; IC50 [1]: > 10 µM; binding to eAPP (eAPP): relative to BSA but no KD
